Legend:
UWB1.289 cells = test: Cell proliferation inhibitory activity in BRCA1/2-mutant or HRD-positive cells (Cell Titer-Glo); format: cell-based; conditions: UWB1289; UWB1.289 cells, 144 hours after compound treatment, Cell Titer-Glo, 1.5 nM to 10 µM; read-out: GI50 UWB1.289 BRCA1 mut
How it was run: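 UWB1.289 cells (1,000/well) in 50% MEBM/50% RPMI1640 exposed to […], final 1.5 nM to 10 µM, for 144 h at 37 °C. Viable cells measured by CellTiter-Glo luminescence; GI50 calculated.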

recombinant USP1 protein = target: T1, recombinant USP1 protein (Homo sapiens, UniProt O94782, DEL125-138/DEL229-408/DEL608-737); test: Binding affinity to recombinant USP1 protein by differential scanning fluorimetry; conditions: compound 100 µM; 0.03 mg/mL USP1 (Δ1-66, Δ125-138, Δ229-408, Δ608-737); Tm with compound minus Tm with DMSO; read-out: ΔTm (°C)
T1 sequence (O94782 with tags, fused parts or gaps DEL125-138/DEL229-408/DEL608-737): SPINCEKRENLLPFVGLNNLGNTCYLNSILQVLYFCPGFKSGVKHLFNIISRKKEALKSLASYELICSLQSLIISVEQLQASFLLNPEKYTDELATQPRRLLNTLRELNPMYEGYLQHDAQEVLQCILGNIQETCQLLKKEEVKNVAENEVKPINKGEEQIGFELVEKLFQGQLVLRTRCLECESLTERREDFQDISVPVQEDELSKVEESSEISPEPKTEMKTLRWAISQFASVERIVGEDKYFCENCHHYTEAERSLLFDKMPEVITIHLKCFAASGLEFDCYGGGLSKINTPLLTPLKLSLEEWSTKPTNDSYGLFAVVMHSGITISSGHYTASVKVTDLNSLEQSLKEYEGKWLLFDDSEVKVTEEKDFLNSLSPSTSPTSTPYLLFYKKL
How it was run: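 USP1 (Δ1-66, Δ125-138, Δ229-408, Δ608-737) at 0.03 mg/mL with dye in 50 mM Tris-HCl pH 8.0, 150 mM NaCl, 2% glycerol, 1 mM DTT; compounds at 100 µM final. Tm read on real-time PCR instrument; ΔTm = Tm with compound minus Tm with DMSO.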

Row | SMILES | ΔTm at 100 µM (recombinant USP1 protein) [°C] | GI50 (UWB1.289 cells) [nM]
1 | COc1ncnc(C2CC2)c1-c1ncc2cc(C(=O)N3CC(CS(C)(=O)=O)C3)n(Cc3ccc(-c4nc(C(F)(F)F)cn4C(C)C)cc3)c2n1 [Example 75, (2-(4-cyclopropyl-6-methoxypyrimid in-5-yl)-7-(4-(1-isopropyl-4-(trifluoromethyl)-1H-imidazol-2-yl)benzyl)-7H-pyrrolo[2,3-d]pyrimidin-6-yl) (3-((methylsulfonyl)methyl)azetidin-1-yl)methanone] | > 5 | 100 to 500
2 | COc1ncnc(C2CC2)c1-c1ncc2cc(C(=O)NCCN3CCC3)n(Cc3ccc(-c4nc(C(F)(F)F)cn4C(C)C)cc3)c2n1 [Example 149, N-(2-(azetidin-1-yl)ethyl)-2-(4-cyclopropyl-6-methoxypyrimidin-5-yl)-7-(4-(1-isopropyl-4-(trifluoromethyl)-1H-imidazol-2-yl)benzyl)-7H-pyrrolo[2,3-d]pyrimidine-6-carboxamide] | > 5 | < 100
3 | COc1ncnc(C2CC2)c1-c1ncc2cc(C(=O)N[C@@H]3CCC[C@H]3N(C)C)n(Cc3ccc(-c4nc(C(F)(F)F)cn4C(C)C)cc3)c2n1 [Example 115, 2-(4-cyclopropyl-6-methoxypyrimidin-5-yl)-N-((1R,2R)-2-(dimethylamino)cyclopentyl)-7-(4-(1-isopropyl-4-(trifluoromethyl)-1H-imidazol-2-yl)benzyl)-7H-pyrrolo[2,3-d]pyrimidine-6-carboxamide] | > 5 | < 100
4 | C=CCCNC(=O)c1cc2cnc(-c3c(OC)ncnc3C3CC3)nc2n1Cc1ccc(-c2nc(C(F)(F)F)cn2C(C)C)cc1 [Example 64, N-(but-3-en-1-yl)-2-(4-cyclopropyl-6-methoxypyrimidin-5-yl)-7-(4-(1-isopropyl-4-(trifluoromethyl)-1H-imidazol-2-yl)benzyl)-7H-pyrrolo[2,3-d]pyrimidine-6-carboxamide] | > 5 | 100 to 500
5 | COc1ncnc(C2CC2)c1-c1ncc2cc(C(=O)NCCN3CCN(C)CC3)n(Cc3ccc(-c4nc(C(F)(F)F)cn4C(C)C)cc3)c2n1 [Example 102, 2-(4-cyclopropyl-6-methoxypyrimidin-5-yl)-7-(4-(1-isopropyl-4-(trifluoromethyl)-1H-imidazol-2-yl)benzyl)-N-(2-(4-methylpiperazin-1-yl)ethyl)-7H-pyrrolo[2,3-d]pyrimidine-6-carboxamide] | > 5 | < 100
6 | COc1ncnc(C2CC2)c1-c1ncc2cc(C(=O)N[C@H]3CN(C)C[C@H]3F)n(Cc3ccc(-c4nc(C(F)(F)F)cn4C(C)C)cc3)c2n1 [Example 220, 2-(4-cyclopropyl-6-methoxypyrimidin-5-yl)-N-((3S,4R)-4-fluoro-1-methylpyrrolidin-3-yl)-7-(4-(1-isopropyl-4-(trifluoromethyl)-1H-imidazol-2-yl)benzyl)-7H-pyrrolo[2,3-d]pyrimidine-6-carboxamide] | > 5 | < 100
7 | COc1ncnc(C2CC2)c1-c1ncc2cc(C(=O)NC3CCN(C)CC3)n(Cc3ccc(-c4nc(C(F)(F)F)cn4C(C)C)cc3)c2n1 [Example 69, 2-(4-cyclopropyl-6-methoxypyrimidin-5-yl)-7-(4-(1-isopropyl-4-(trifluoromethyl)-1H-imidazol-2-yl)benzyl)-N-(1-methylpiperidin-4-yl)-7H-pyrrolo[2,3-d]pyrimidine-6-carboxamide] | > 5 | < 100
8 | COc1ncnc(C2CC2)c1-c1ncc2cc(C(=O)NC3(C)COC3)n(Cc3ccc(-c4nc(C(F)(F)F)cn4C(C)C)cc3)c2n1 [Example 104, 2-(4-cyclopropyl-6-methoxypyrimidin-5-yl)-7-(4-(1-isopropyl-4-(trifluoromethyl)-1H-imidazol-2-yl)benzyl)-N-(3-methyloxetan-3-yl)-7H-pyrrolo[2,3-d]pyrimidine-6-carboxamide] | > 5 | < 100
9 | COc1ncnc(C2CC2)c1-c1ncc2cc(C(=O)NC3CCC3)n(Cc3ccc(-c4nc(C(F)(F)F)cn4C(C)C)cc3)c2n1 [Example 15, N-cyclobutyl-2-(4-cyclopropyl-6-methoxypyrimidin-5-yl)-7-(4-(1-isopropyl-4-(trifluoromethyl)-1H-imidazol-2-yl)benzyl)-7H-pyrrolo[2,3-d]pyrimidine-6-carboxamide] | > 5 | < 100
10 | COc1ncnc(C2CC2)c1-c1ncc2cc(C(=O)N3CC[C@H](OC)C3)n(Cc3ccc(-c4nc(C(F)(F)F)cn4C(C)C)cc3)c2n1 [Example 128, (S)-(2-(4-cyclopropyl-6-methoxypyrimidin-5-yl)-7-(4-(1-isopropyl-4-(trifluoromethyl)-1H-imidazol-2-yl)benzyl)-7H-pyrrolo[2,3-d]pyrimidin-6-yl) (3-methoxypyrrolidin-1-yl)methanone] | > 5 | < 100
11 | COc1ncnc(C2CC2)c1-c1ncc2cc(C(=O)NCC#N)n(Cc3ccc(-c4nc(C(F)(F)F)cn4C(C)C)cc3)c2n1 [Example 22, N-(cyanomethyl) - 2-(4-cyclopropyl-6-methoxypyrimidin-5-yl)-7-(4-(1-isopropyl-4-(trifluoromethyl)-1H-imidazol-2-yl)benzyl)-7H-pyrrolo[2,3-d]pyrimidine-6-carboxamide] | > 5 | < 100

Continued, in another order:

Row | ΔTm at 100 µM (recombinant USP1 protein) [°C] | SMILES | GI50 (UWB1.289 cells) [nM]
12 | > 5 | COc1ncnc(C2CC2)c1-c1ncc2cc(C(=O)NC(C)(C)CO)n(Cc3ccc(-c4nc(C(F)(F)F)cn4C)cc3)c2n1 [Example 197, 2-(4-cyclopropyl-6-methoxypyrimidin-5-yl)-N-(1-hydroxy-2-methylpropan-2-yl)-7-(4-(1-methyl-4-(trifluoromethyl)-1H-imidazol-2-yl)benzyl)-7H-pyrrolo[2,3-d]pyrimidine-6-carboxamide] | < 100
13 | > 5 | COc1ncnc(C2CC2)c1-c1ncc2cc(C(=O)N3CC[C@H](O)C3)n(Cc3ccc(-c4nc(C(F)(F)F)cn4C(C)C)cc3)c2n1 [Example 117, (S)-(2-(4-cyclopropyl-6-methoxypyrimidin-5-yl)-7-(4-(1-isopropyl-4-(trifluoromethyl)-1H-imidazol-2-yl)benzyl)-7H-pyrrolo[2,3-d]pyrimidin-6-yl) (3-hydroxypyrrolidin-1-yl)methanone] | < 100
14 | > 5 | COc1ncnc(C2CC2)c1-c1ncc2cc(C(=O)NC3CCC(N(C)C)CC3)n(Cc3ccc(-c4nc(C(F)(F)F)cn4C)cc3)c2n1 (centres unmarked) [Example 172] | < 100
15 | > 5 | COc1ncnc(C2CC2)c1-c1ncc2cc(C(=O)N[C@H]3C[C@H]3F)n(Cc3ccc(-c4nc(C(F)(F)F)cn4C(C)C)cc3)c2n1 [Example 129, 2-(4-cyclopropyl-6-methoxypyrimidin-5-yl)-N-((1S,2R)-2-fluorocyclopropyl)-7-(4-(1-isopropyl-4-(trifluoromethyl)-1H-imidazol-2-yl)benzyl)-7H-pyrrolo[2,3-d]pyrimidine-6-carboxamide] | < 100
16 | > 5 | COc1ncnc(C2CC2)c1-c1ncc2cc(C(=O)N3CCN4CCCC4C3)n(Cc3ccc(-c4nc(C(F)(F)F)cn4C(C)C)cc3)c2n1 (centres unmarked) [Example 55, (2-(4-cyclopropyl-6-methoxypyrimid in-5-yl)-7-(4-(1-isopropyl-4-(trifluoromethyl)-1H-imidazol-2-yl)benzyl)-7H-pyrrolo[2,3-d]pyrimidin-6-yl) (hexahydrop yrrolo[1,2-a]pyrazin-2 (1H) - yl)methanone] | 100 to 500
17 | > 5 | COc1ncnc(C2CC2)c1-c1ncc2cc(C(=O)NCC3(CO)CC3)n(Cc3ccc(-c4nc(C(F)(F)F)cn4C(C)C)cc3)c2n1 [Example 7, 2-(4-cyclopropyl-6-methoxypyrimidin-5-yl)-N-((1-(hydroxymethyl)cyclopropyl)methyl)-7-(4-(1-isopropyl-4-(trifluoromethyl)-1H-imidazol-2-yl)benzyl)-7H-pyrrolo[2,3-d]pyrimidine-6-carboxamide] | < 100
18 | > 5 | COc1ncnc(C2CC2)c1-c1ncc2cc(C(=O)NC[C@H]3CCCO3)n(Cc3ccc(-c4nc(C(F)(F)F)cn4C(C)C)cc3)c2n1 [Example 127, (R) -2-(4-cyclopropyl-6-methoxypyrimidin-5-yl)-7-(4-(1-isopropyl-4-(trifluoromethyl)-1H-imidazol-2-yl)benzyl)-N-((tetrahydrofuran-2-yl)methyl)-7H-pyrrolo[2,3-d]pyrimidine-6-carboxamide] | < 100
19 | > 5 | COc1ncnc(C2CC2)c1-c1ncc2cc(C(=O)N3CC[C@H](N(C)C)C3)n(Cc3ccc(-c4nc(C(F)(F)F)cn4C(C)C)cc3)c2n1 [Example 50, (S)-(2-(4-cyclopropyl-6-methoxypyrimidin-5-yl)-7-(4-(1-isopropyl-4-(trifluoromethyl)-1H-imidazol-2-yl)benzyl)-7H-pyrrolo[2,3-d]pyrimidin-6-yl) (3-(dimethylamino)pyrrolidin-1-yl)methanone] | 100 to 500

Source: patent EP4806898A1, “HETEROARYL DERIVATIVE COMPOUND AND USE THEREOF” (Voronoi Inc., priority 2023, dated 2025)
